Data on 23 molecules can be found in PubChem BioAssay (NCI).

Structures are written as SMILES. Where “and” joins values, the source holds several entries; their conditions need not be identical. Identical values can stand only once.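 Results reflect a 48-hour exposure of cells in 96-well plates to compound at five concentrations. Abbreviation: GI50, concentration required for 50% inhibition of growth. Definition used: TGI = concentration required for complete inhibition of growth.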 Where only a bound is given, the exact number is not on record here.

Common to all, as to test: inhibition of tumour cell growth, NCI panel, 48 h
The subject of assay [1] is HT29 colon.
Assay [2] deals with OVCAR-4 ovarian.
The test system of assay [3] is UACC-257 melanoma.
Assay [4] relates to SF-268 CNS.
In assay [5] the test system is OVCAR-3 ovarian.
Assay [6] has as its system HCC-2998 colon.
Assay [7] deals with MDA-MB-435.
Assay [8] has as its system KM12 colon.
Assay [9] concerns CAKI-1 renal.
Assay [10] has as its system UO-31 renal.

For `CC(=O)CC1CCC(=O)CCC(=O)OC(CC(C)=O)CCC(=O)CCC(=O)O1` (stereo unspecified), the TGI in assay [1], in [2], in [3], in assay [4], in assay [5] and in [6] was more than 100 µM throughout. The TGI in assay [7] and in assay [8] was more than 100 µM each time.

On to `Cc1nn(C(=O)c2ccccc2O)c2c1C(c1ccccc1)SC(N)=N2` (stereo unspecified), for which the TGI was more than 10 µM in assay [1]; more than 10 µM in assay [2]; more than 10 µM in [3]; more than 10 µM in assay [4]; 7.22 µM in [5]; more than 10 µM in [6]. Besides, the TGI in assay [9], in assay [7] and in assay [8] was more than 10 µM each time.

As to `Cc1c(CCCl)c(=O)n2c([nH]c3ccccc32)c1C#N`, the TGI in assay [1] was determined as 3.49 µM; in [10], 3.51 µM; in assay [2], 3.16 µM; in assay [3] it was 8.04 µM; in assay [4], 4.41 µM; in assay [5], 3.67 µM. For the same molecule, the figures for the TGI in [9], in assay [7] and in assay [8] were 2.77 µM, 4.05 µM and 3.14 µM, respectively.

On to `S=C(Nc1ccc(-c2nc3ccccc3[nH]2)cc1)NC1CCCCC1`, for which the GI50 in [1] was 34.4 µM; in [10], 21.3 µM; in assay [3] it was 26.6 µM; in assay [4], 33.1 µM; in assay [6] it was 16.4 µM; in [7], 16.4 µM. Besides, the GI50 in [8] was 22.5 µM. Moreover, the TGI in assay [1] was more than 100 µM; in assay [10] it was 71.6 µM; in assay [3], 57.1 µM; in [5], 43.8 µM; in assay [6] it was 32.4 µM; in [9], 55.2 µM. In addition, the TGI worked out at 43.3 µM in assay [7] and 63.6 µM in [8].

Regarding `CC(=O)NC1=N/C(=C/c2cc([N+](=O)[O-])ccc2O)CN1C`, the TGI in [1], in assay [10], in [2], in assay [3], in [5] and in assay [6] was more than 100 µM in each case. In addition, the TGI in [9], in [7] and in assay [8] was more than 100 µM each time.

Turning to `COc1ccc(NC(=O)C2C(=O)N(c3ccc(OC)cc3)C(=O)/C2=N/O)cc1` (stereo unspecified), the TGI in assay [1] was more than 100 µM; in [10] it was 47 µM; in assay [2], 31.6 µM; in assay [3] it was more than 80.5 µM; in assay [4], 52.7 µM; in assay [5] it was more than 59.9 µM. Moreover, the TGI was 47.2 µM in [6], more than 77.3 µM in assay [9] and 56.7 µM in assay [8].

In the case of `CCN(CC)CCNc1c(OC)cc(C)c2sc3ccccc3c(=O)c12`, the TGI was found to be 6.42 µM in [1]; 20.3 µM in assay [10]; 14.8 µM in assay [2]; 3.6 µM in [3]; 25.7 µM in assay [4]; 26.2 µM in assay [5]. Moreover, the TGI in assay [9] turned out to be 20.6 µM; in assay [7] it was 8.16 µM; in [8] it was 17.2 µM.

Take `Nc1c(C(=O)c2ccccc2)sc2nc(-c3cccs3)ccc12`: the GI50 in [1] is 0.365 µM; in assay [10], 1.13 µM; in assay [2] it was 0.902 µM; in assay [4], 0.664 µM; in [5], 0.0468 µM; in assay [6], 0.468 µM. In addition, the GI50 in [9] was 0.564 µM; in assay [7], 0.027 µM; in assay [8], 0.103 µM. The TGI worked out at 3.3 µM in [1]; 15.2 µM in assay [10]; 6.72 µM in [2]; 15.5 µM in assay [4]; 1.05 µM in assay [5]; 4.25 µM in assay [6]. Besides, the TGI in assay [9] is 20.1 µM; in assay [7] it was 1.03 µM; in [8], 5.6 µM.

For the molecule `CC(=O)Oc1cc(C)ccc1[C@]1(C)CC[C@H](C)/C1=C\Br`, the GI50 is 2.45 µM in assay [1]; 8.43 µM in assay [10]; 2.87 µM in [2]; 8.28 µM in assay [3]; 4.76 µM in assay [4]; 2.61 µM in assay [5]. The GI50 in assay [9] was 3.53 µM; in assay [7] it was 1.49 µM; in assay [8] it was 2.92 µM. For the same molecule, the TGI is 5.06 µM in assay [1]; 34 µM in assay [10]; 12.6 µM in assay [2]; 20.8 µM in [3]; 17.9 µM in [4]; 7.16 µM in [5]. Further, the TGI was 14.3 µM in [9], 3.89 µM in [7] and 12 µM in assay [8].

In the case of `COc1ccc(/C=C/c2cc(OC)c(OC)c(OC)c2)cc1NC(=O)/C=C/c1ccc(F)cc1`, the GI50 in assay [1] was 2.34 µM; in assay [10] it was 2.3 µM; in [2] it was 5.95 µM; in assay [3], 3.02 µM; in assay [4] it was 7.7 µM; in [5], 2.43 µM. Further, the GI50 is 1.94 µM in [6], 2.11 µM in assay [9] and 2.96 µM in assay [8]. The TGI in assay [1] is 13.5 µM; in assay [10], more than 100 µM; in [2], more than 100 µM; in assay [3], more than 100 µM; in assay [4], more than 100 µM; in [5] it was 6.23 µM. Also, the TGI in assay [6] was more than 28.2 µM; in assay [9], more than 100 µM; in assay [8] it was more than 100 µM.

As for `Cc1cc2nc3c(=O)n(C)c(=O)nc-3n(-c3ccc(Cl)cc3)c2cc1C`, the TGI was determined as 16.1 µM in assay [1]; 52.6 µM in assay [10]; 19.8 µM in [2]; 20 µM in assay [3]; 36.7 µM in assay [4]; 8.81 µM in [5]. Also, the TGI in assay [6] was 20.4 µM; in assay [9], 48.8 µM; in assay [8] it was more than 100 µM.

For the molecule `COc1cc(OC2OC(C)C(O)C(O)C2O)cc2oc(-c3ccc(O)cc3)c(CC=C(C)C)c(=O)c12` (stereo unspecified), the GI50 in [10] is 16.2 µM; in [2], 2.06 µM; in assay [3], 29.6 µM; in [4], 15.4 µM; in assay [5], 17.1 µM; in [6] it was 16.6 µM. The GI50 is 14.1 µM in assay [9], 20.5 µM in [7] and 12.2 µM in assay [8]. The TGI was 64.6 µM in [10]; 18.9 µM in [2]; 68.4 µM in assay [3]; 32.5 µM in assay [4]; 66.3 µM in assay [5]; 40.8 µM in assay [6]. In addition, the results for the TGI in [9], in assay [7] and in assay [8] were 40.7 µM, 59.9 µM and 31 µM, respectively.

Regarding `C[CH2][Sn]1([CH2]C)[O]C(=O)[O][Sn]([CH2]C)([CH2]C)[O]1`, the GI50 in [1] was 25.6 µM; in assay [10], 45.8 µM; in assay [2] it was more than 100 µM; in [3], 17.8 µM; in assay [4], 18.9 µM; in [5], 23.5 µM. The GI50 is 60 µM in [6], 1.44 µM in assay [9] and more than 61.5 µM in assay [8]. Also, the TGI was more than 62.2 µM in assay [1]; more than 100 µM in [10]; more than 100 µM in assay [2]; 33 µM in assay [3]; 36.6 µM in assay [4]; more than 61.8 µM in assay [5]. Moreover, the TGI was more than 100 µM in [6], 9.72 µM in assay [9] and more than 100 µM in assay [8].

Turning to `CN(C)c1ccc(/C=C2\Oc3cc(O)ccc3C2=O)cc1`, the TGI in assay [10], in assay [2], in assay [3], in assay [4], in [5] and in [6] was more than 100 µM throughout. Also, the TGI in [9], in assay [7] and in [8] was more than 100 µM each time.

For the molecule `O=C(Oc1ccc(O)c2c(=O)n3c(cc12)[nH]c1ccccc13)c1ccccc1`, the GI50 in assay [1] is 33.5 µM; in assay [10], 2.19 µM; in [2] it was 49 µM; in [3] it was 16.6 µM; in [4], 61 µM; in assay [6], 18.6 µM. Also, the figures for the GI50 in [7] and in [8] were 28.5 µM and 34.7 µM, respectively. The TGI is more than 100 µM in assay [1]; 10.1 µM in assay [10]; more than 100 µM in [2]; 42.2 µM in assay [3]; more than 100 µM in assay [4]; 36.9 µM in [6]. The TGI in [7] was 89.9 µM; in [8] it was more than 100 µM.

Turning to `CCC(=O)c1cn(C)c(=O)c2ccccc12`, the TGI in assay [1], in [10], in assay [2], in [3], in assay [4] and in [5] was more than 100 µM each time. The TGI in assay [6], in [9] and in assay [8] was more than 100 µM throughout.

Regarding `COc1cc(C2c3cc4c(cc3[C@@H](Nc3ccc(C(=O)O)cc3)C3COC(=O)[C@H]23)OCO4)cc(OC)c1O` (stereo partly specified), the TGI in assay [1] was 64.8 µM and > 17.5 µM; in assay [10], more than 100 µM; in [2], more than 100 µM; in [3] it was more than 100 µM; in [4] it was 69.1 µM and > 17.5 µM; in assay [5], 66.9 µM and > 17.5 µM. Besides, the TGI in assay [6] is 53.8 µM and > 17.5 µM; in assay [9], 47.1 µM and > 17.5 µM; in [8], 68.5 µM and > 17.5 µM.

Take `COC(=O)c1c(-c2ccccc2)cc2c3cc(-c4ccccc4)c(C(=O)OC)n3c3ccccc3n12`: the TGI was more than 100 µM in assay [1]; more than 100 µM in assay [10]; more than 31.6 µM in assay [2]; more than 100 µM in assay [3]; more than 100 µM in assay [4]; more than 100 µM in assay [5]. Moreover, the TGI in assay [6], in assay [9] and in assay [8] was more than 100 µM throughout.

`C=CCCCCCCCCCCCC1CCC(CC)N1` (stereo unspecified): the TGI in assay [1] was found to be 14 µM; in [10] it was 23.8 µM; in assay [2], 21.3 µM; in assay [3], 28 µM; in assay [4], 46.6 µM; in [5] it was 23 µM. For the same molecule, the TGI amounted to 8.04 µM in [6], 25.4 µM in assay [9] and 13.1 µM in assay [8].

As to `N#CC(C#N)=C(N)/C(C#N)=C\c1ccnc2ccccc12`, the TGI in assay [1] was 57.7 µM; in [10] it was 40.9 µM; in assay [2] it was more than 100 µM; in assay [3] it was 58.6 µM; in assay [4], 66.3 µM; in assay [5] it was more than 100 µM. Besides, the TGI is more than 100 µM in assay [6], 92.1 µM in [9] and more than 100 µM in assay [8].

For the molecule `O=C(O)C1CCc2ccc3ccccc3c2C1c1cccc2ccccc12` (stereo unspecified), the TGI was 32.7 µM in [1]; 40.5 µM in assay [10]; 90.9 µM in assay [2]; 59.4 µM in [3]; 91.7 µM in assay [4]; 29.8 µM in assay [5]. The TGI in assay [9] is more than 100 µM; in assay [7], 73.7 µM; in assay [8] it was 37.8 µM.

On to `C=CCc1cc2cccc(OC)c2oc1=O`, for which the TGI in assay [1] is more than 100 µM; in assay [10], 69.2 µM; in assay [2], more than 100 µM; in [3], more than 100 µM; in assay [4] it was more than 100 µM; in [5], more than 100 µM. The TGI in assay [6], in assay [9] and in [8] was more than 100 µM in each case.

Consider `CN(C)CCNc1nc2ccccc2c2c1c1c(n2Cc2ccccc2)-c2ccccc2C1=O`, for which the GI50 is 6.92 µM in assay [1]; 14.3 µM in [10]; 12.6 µM in assay [2]; 19.9 µM in assay [3]; 12.2 µM in [4]; 17.2 µM in [5]. The results for the GI50 in [9] and in assay [7] were 18 µM and 16.8 µM, respectively. The TGI in assay [1] is 22.2 µM; in assay [10], 35.4 µM; in assay [2] it was 27 µM; in assay [3], 42.6 µM; in [4], 28.6 µM; in assay [5], 34.8 µM. Also, the TGI in assay [9] stood at 37.1 µM; in assay [7], 35.5 µM.
